According to patent US12428408B2, “Fused heterocyclic mescaline derivatives” (Enveric Biosciences Canada Inc., priority 2022, dated 2025):
Read-outs that look alike come from different tables or passages of the source.

Columns and labels:
5-HT1B (h) = molecular target: T1, 5-HT1B (h) (Homo sapiens, UniProt P28222); assay: Competition assay to measure binding affinity at 5-HT1B receptor; details: test ligand 10 μM; [3H]GR125743 1 nM
T1 construct: host or cells: Chem-1 (RBL) cells

5-HT1A receptor = molecular target: T2, 5-HT1A receptor (Homo sapiens, UniProt P08908); assay: 5-HT1A receptor radioligand competition assay (SPA); type: binding
T2 construct: purchased Perkin Elmer 6110501400UA
T2 sequence (P08908 1-422): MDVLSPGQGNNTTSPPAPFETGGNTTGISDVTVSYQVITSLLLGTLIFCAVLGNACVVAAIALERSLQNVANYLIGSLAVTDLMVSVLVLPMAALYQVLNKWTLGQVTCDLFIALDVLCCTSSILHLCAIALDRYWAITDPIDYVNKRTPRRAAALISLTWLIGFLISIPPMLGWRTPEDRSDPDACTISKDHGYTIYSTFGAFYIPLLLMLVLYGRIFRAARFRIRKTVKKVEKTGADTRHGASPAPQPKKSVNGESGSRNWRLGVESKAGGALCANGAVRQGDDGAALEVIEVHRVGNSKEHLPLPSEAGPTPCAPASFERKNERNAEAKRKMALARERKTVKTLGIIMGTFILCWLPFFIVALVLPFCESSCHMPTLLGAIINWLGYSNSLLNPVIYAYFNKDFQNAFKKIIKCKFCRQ

5-HT2C (h) = molecular target: T3, 5-HT2C (h) (Homo sapiens, UniProt P28335); assay: Competition assay to measure binding affinity at 5-HT2C receptor; details: test ligand 10 μM; [125I](±)DOI 0.1 nM
T3 construct: host or cells: HEK-293 cells
T3 sequence (P28335 33-458): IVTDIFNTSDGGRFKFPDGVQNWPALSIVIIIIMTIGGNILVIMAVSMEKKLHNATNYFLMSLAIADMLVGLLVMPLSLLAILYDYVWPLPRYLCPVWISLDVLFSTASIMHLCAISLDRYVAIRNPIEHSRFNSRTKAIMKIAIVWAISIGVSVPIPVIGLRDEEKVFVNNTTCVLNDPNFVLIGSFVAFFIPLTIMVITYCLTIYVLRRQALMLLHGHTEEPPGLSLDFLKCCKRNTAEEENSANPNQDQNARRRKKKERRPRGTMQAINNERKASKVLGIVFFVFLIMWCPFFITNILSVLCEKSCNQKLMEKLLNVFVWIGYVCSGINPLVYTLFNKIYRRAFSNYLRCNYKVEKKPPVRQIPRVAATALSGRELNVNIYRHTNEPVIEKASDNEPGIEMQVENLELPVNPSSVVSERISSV

NET (h) = molecular target: T4, NET (h) (Homo sapiens, UniProt P23975); assay: Competition assay to measure binding affinity at norepinephrine transporter (NET); details: test ligand 10 μM; [3H]nisoxetine 1 nM
T4 construct: host or cells: CHO cells
T4 sequence (P23975 whole entry): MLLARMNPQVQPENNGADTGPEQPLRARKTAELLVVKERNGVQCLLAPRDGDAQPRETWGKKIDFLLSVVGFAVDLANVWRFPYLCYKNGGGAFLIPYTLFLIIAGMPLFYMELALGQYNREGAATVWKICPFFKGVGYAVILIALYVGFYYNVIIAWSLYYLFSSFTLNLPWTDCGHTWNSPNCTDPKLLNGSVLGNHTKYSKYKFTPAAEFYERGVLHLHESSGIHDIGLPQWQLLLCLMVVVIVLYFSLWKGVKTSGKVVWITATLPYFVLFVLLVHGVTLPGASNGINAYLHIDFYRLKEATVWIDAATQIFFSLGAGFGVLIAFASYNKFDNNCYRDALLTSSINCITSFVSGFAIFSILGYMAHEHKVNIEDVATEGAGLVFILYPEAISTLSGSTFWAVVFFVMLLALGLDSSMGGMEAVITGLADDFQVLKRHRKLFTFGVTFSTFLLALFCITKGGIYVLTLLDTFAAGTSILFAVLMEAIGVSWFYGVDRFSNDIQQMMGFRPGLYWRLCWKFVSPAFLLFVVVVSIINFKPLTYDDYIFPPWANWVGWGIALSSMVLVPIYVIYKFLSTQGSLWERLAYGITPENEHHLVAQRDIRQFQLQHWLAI

alpha2A (h) = molecular target: T5, alpha2A (h) (Homo sapiens, UniProt P08913); assay: Competition assay to measure binding affinity at alpha2A receptor; details: test ligand 10 μM; [3H]RX 821002 1 nM; read-out: α-2A, percent of control-specific binding
T5 construct: host or cells: CHO cells
T5 sequence (P08913 1-465): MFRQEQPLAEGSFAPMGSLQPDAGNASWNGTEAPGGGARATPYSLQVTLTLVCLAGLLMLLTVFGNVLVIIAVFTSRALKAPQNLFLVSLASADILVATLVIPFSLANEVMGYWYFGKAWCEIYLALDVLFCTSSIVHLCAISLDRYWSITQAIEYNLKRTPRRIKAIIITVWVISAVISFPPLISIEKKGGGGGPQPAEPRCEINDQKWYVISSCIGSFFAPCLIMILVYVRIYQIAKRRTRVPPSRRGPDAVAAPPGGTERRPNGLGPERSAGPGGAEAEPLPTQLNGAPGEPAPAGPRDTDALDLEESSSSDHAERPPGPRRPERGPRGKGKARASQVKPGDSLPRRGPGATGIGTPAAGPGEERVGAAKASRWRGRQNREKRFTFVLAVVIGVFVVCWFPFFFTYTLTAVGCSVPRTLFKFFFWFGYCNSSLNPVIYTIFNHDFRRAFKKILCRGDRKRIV

DAT (h) = molecular target: T6, DAT (h) (Homo sapiens, UniProt Q01959); assay: Competition assay to measure binding affinity at dopamine transporter (DAT); details: test ligand 10 μM; [3H]BTCP 4 nM
T6 construct: host or cells: CHO cells
T6 sequence (Q01959 whole entry): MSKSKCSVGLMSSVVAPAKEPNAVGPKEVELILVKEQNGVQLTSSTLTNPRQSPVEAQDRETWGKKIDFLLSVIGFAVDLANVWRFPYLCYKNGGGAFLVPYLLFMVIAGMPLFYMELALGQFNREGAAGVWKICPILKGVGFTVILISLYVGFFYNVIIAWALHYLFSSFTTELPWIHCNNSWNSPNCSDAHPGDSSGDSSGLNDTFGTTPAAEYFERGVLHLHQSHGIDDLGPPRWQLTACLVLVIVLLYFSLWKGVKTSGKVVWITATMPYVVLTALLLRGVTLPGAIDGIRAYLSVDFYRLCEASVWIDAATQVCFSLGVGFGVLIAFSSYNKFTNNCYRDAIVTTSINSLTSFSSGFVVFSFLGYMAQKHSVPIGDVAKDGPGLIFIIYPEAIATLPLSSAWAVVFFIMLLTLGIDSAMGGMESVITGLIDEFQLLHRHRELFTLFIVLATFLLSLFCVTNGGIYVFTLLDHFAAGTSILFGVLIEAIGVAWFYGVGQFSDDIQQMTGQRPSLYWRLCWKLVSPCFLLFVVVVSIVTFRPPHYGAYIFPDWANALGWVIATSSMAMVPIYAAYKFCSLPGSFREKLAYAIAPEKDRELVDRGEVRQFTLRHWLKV

MT1 (ML1A) (h) = molecular target: T7, MT1 (ML1A) (h) (Homo sapiens, UniProt P48039); assay: Competition assay to measure binding affinity at MT1 receptor; details: test ligand 10 μM; [125I]2-iodomelatonin 0.01 nM
T7 construct: host or cells: CHO cells
T7 sequence (P48039 whole entry): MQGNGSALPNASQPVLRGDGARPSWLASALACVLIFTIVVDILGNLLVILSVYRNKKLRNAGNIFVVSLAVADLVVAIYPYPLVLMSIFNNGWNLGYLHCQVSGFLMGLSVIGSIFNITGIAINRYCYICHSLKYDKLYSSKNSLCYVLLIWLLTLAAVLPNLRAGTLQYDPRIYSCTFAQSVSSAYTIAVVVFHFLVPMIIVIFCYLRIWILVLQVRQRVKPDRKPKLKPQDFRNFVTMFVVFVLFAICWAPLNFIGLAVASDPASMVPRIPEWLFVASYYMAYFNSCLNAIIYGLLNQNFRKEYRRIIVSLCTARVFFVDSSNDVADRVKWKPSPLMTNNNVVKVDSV

[1] = molecular target: T8, human serotonin transporter (SERT) (Homo sapiens, UniProt P31645); assay: biochemical; type: binding
T8 construct: purchased PerkinElmer RBHSTM400UA
T8 sequence (P31645 whole entry): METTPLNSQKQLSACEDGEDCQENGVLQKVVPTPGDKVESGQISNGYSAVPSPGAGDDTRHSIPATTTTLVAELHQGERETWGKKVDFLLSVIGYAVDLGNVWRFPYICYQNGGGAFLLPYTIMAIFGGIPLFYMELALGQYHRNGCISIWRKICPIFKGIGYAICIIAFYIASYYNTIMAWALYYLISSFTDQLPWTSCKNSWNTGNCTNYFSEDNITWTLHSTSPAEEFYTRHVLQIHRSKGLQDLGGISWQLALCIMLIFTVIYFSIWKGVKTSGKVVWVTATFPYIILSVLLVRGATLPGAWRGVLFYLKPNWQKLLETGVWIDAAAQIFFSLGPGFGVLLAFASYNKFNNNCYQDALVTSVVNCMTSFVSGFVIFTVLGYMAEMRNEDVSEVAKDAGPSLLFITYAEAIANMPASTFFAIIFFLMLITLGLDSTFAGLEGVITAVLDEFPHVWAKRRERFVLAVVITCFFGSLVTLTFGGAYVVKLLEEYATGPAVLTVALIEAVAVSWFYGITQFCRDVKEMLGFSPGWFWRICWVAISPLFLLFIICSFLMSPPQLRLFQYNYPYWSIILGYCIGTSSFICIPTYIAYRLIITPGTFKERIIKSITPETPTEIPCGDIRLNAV

D3 (h) = molecular target: T9, D3 (h) (Homo sapiens, UniProt P35462); assay: Competition assay to measure binding affinity at D3 receptor; details: test ligand 10 μM; [3H]methylspiperone […]
T9 construct: host or cells: CHO cells
T9 sequence (P35462 whole entry): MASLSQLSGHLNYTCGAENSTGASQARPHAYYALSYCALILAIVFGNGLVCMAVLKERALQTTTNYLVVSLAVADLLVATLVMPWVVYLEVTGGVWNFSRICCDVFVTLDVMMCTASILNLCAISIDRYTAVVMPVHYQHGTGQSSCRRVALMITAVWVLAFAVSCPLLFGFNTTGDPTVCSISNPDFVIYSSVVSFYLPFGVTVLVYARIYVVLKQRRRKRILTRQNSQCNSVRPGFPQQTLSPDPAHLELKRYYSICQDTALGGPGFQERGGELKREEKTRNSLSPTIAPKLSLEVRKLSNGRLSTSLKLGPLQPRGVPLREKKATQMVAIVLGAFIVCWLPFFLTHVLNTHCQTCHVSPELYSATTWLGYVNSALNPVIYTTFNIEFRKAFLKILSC

5-HT2B (h) = molecular target: T10, 5-HT2B (h) (Homo sapiens, UniProt P41595); assay: Competition assay to measure binding affinity at 5-HT2B receptor; details: test ligand 10 μM; [3H]mesulergine 2 nM
T10 construct: host or cells: CHO cells
T10 sequence (P41595 whole entry): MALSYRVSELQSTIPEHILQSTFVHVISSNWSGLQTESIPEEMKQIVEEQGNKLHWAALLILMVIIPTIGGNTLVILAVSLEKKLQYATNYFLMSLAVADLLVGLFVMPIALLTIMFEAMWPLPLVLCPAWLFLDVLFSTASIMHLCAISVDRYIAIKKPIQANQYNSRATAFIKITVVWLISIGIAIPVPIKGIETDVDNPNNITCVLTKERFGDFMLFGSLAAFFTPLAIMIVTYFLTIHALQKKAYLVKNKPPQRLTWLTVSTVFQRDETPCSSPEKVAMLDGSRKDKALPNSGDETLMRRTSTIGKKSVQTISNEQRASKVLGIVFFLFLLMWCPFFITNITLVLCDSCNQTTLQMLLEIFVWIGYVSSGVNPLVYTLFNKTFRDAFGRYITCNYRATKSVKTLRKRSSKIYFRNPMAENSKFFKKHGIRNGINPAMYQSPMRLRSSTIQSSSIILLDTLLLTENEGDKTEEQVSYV

D2 (h) = molecular target: T11, D2 (h) (Homo sapiens, UniProt P14416); assay: Competition assay to measure binding affinity at D2L receptor; details: test ligand 10 μM; [3H]methylspiperone 0.3 nM
T11 construct: host or cells: HEK-293 cells
T11 sequence (P14416 whole entry): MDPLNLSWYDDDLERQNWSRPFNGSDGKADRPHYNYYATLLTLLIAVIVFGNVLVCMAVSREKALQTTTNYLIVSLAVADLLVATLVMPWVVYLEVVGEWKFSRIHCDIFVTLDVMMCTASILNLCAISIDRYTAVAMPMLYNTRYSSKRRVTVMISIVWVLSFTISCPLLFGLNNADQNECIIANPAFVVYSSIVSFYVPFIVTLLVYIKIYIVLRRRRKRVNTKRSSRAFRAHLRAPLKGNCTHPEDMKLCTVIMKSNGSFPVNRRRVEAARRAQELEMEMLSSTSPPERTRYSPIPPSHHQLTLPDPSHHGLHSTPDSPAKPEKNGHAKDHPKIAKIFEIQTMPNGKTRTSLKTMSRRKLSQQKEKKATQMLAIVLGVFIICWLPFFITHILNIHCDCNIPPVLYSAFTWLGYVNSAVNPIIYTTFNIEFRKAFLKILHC

5-HT2A receptor = 5-HT2A receptor (Homo sapiens, UniProt P28223); assay: 5-HT2A receptor radioligand competition assay (SPA)
Sequence of 5-HT2A receptor (P28223 whole entry): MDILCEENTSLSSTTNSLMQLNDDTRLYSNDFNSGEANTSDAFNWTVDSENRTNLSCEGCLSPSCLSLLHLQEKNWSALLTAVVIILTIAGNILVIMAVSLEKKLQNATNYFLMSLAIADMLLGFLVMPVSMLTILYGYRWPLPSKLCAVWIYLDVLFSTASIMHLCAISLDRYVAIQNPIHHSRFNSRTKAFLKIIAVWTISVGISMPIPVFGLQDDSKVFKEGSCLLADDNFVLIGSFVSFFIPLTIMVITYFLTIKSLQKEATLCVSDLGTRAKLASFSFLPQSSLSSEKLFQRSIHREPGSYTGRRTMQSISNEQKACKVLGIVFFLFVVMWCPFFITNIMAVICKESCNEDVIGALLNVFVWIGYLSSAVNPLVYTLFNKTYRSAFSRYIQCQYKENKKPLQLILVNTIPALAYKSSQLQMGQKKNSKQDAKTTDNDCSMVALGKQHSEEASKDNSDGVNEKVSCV

5-HT1D (r) = molecular target: T12, 5-HT1D (r) (Rattus norvegicus, UniProt P28565); assay: Competition assay to measure binding affinity at 5-HT1D receptor; details: test ligand 10 μM; [3H]serotonin 1 nM
T12 construct: host or cells: CHO cells
T12 sequence (P28565 whole entry): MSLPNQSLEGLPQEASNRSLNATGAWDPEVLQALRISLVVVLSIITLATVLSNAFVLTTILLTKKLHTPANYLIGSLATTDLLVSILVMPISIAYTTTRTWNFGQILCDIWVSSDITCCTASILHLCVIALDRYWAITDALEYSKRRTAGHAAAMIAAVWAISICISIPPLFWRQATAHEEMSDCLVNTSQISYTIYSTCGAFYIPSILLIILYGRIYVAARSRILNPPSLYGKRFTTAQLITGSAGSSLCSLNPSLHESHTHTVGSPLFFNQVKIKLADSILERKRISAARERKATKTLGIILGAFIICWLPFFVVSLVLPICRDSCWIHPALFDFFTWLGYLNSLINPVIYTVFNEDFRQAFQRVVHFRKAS

5-HT7 (h) = molecular target: T13, 5-HT7 (h) (Homo sapiens, UniProt P34969); assay: Competition assay to measure binding affinity at 5-HT7 receptor; details: test ligand 10 μM; [3H]LSD 4 nM
T13 construct: host or cells: HEK-293 cells

[2] = competition with 0.5 nM 8-hydroxy-DPAT [3H], test compound 3 nM to 1 mM, read-out: 5-HT1A, Ki

T1 sequence (P28222 whole entry): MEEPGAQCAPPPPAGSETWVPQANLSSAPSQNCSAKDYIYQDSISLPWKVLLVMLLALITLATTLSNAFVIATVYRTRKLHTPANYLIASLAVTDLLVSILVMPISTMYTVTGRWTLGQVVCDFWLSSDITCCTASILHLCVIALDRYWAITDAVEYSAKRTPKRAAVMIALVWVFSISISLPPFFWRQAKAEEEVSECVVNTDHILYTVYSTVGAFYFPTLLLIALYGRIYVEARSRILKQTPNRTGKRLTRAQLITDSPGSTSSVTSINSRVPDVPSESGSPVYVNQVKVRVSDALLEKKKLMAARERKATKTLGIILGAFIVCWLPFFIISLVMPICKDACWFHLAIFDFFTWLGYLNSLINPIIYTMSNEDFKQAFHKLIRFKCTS

SMILES | HT1B, percent of control-specific binding (5-HT1B (h)) | Ki (5-HT1A receptor; [2]) | HT2C, percent of control-specific binding (5-HT2C (h)) | NET, percent of control-specific binding (NET (h)) | inhibition at 10 µM (alpha2A (h)) | DAT, percent of control-specific binding (DAT (h)) | MT1, percent of control-specific binding (MT1 (ML1A) (h)) | Ki [1] | D3, percent of control-specific binding (D3 (h)) | HT2B, percent of control-specific binding (5-HT2B (h)) | D2, percent of control-specific binding (D2 (h)) | Ki (5-HT2A receptor) | HT1D, percent of control-specific binding (5-HT1D (r)) | HT7, percent of control-specific binding (5-HT7 (h)) | Ki (5-HT1A receptor)
O=C(Cc1cc2c(cc1Br)OCO2)NCCO [A(XIX)] | 0% | 586 µM | 22% | 0% | 10% | 0% | 15% | > 1000 µM | 0% | 7% | 0% | 18.8 µM | 0% | 1% | –
CC(Cc1ccc2c(c1)OCO2)NN(C)C (stereo not shown) [A(VIII)] | 0% | 19.6 µM | 79% | 2% | 8% | 38% | 33% | 22.6 µM | 18% | 67% | 12% | 3.38 µM | 0% | 17% | –
CC(Cc1ccc2c(c1)OCCO2)NCc1ccc2c(c1)OCCO2 (stereo not shown) [A(XIII)] | 11% | – | 34% | 50% | 77% | 90% | 12% | 2.91 µM | 54% | 85% | 28% | 102 µM | 38% | 52% | 1.5 µM
CC(Cc1ccc2c(c1)OCCO2)NCc1ccccc1 (stereo not shown) [A(XXIII)] | 0% | – | 42% | 88% | 60% | 91% | 3% | 2.75 µM | 38% | 66% | 9% | 70 µM | 29% | 34% | 5.58 µM
CC(Cc1ccc2c(c1)OCCO2)NCc1cc2c(cc1Br)OCO2 (stereo not shown) [A(IX)] | 1% | – | 88% | 47% | 82% | 75% | 24% | 0.223 µM | 45% | 97% | 35% | 19 µM | 83% | 72% | 0.986 µM
COc1cc2c(cc1CNC(C)Cc1ccc3c(c1)OCCO3)OCO2 (stereo not shown) [A(X)] | 0% | – | 63% | 49% | 81% | 84% | 15% | 2.36 µM | 25% | 89% | 13% | 12 µM | 10% | 59% | 1.1 µM
CC(C)(C)OC(=O)NC1CN(CCc2ccc3c(c2)OCO3)C1 [A(XV)] | 1% | 3.1 µM | 36% | 11% | 6% | 39% | 0% | 64.3 µM | 53% | 58% | 0% | 86 µM | 29% | 58% | –
CC(Cc1ccc2c(c1)OCCO2)N1CC(NC(=O)OC(C)(C)C)C1 (stereo not shown) [A(XVI)] | 27% | 1.4 µM | 79% | 24% | 86% | 16% | 3% | 58.1 µM | 82% | 90% | 21% | 39 µM | 37% | 62% | –
